Tests used:
[1] = system: OT-1 T cells; assay: Intracellular cytokine staining of OT-1 T cells; assay type: cell-based, mouse; conditions: higher doses
Procedure: OT-1 cells were prepared and incubated with ovalbumin-expressing tumors as described above in the LAMP-1 assay. For some experiments OT-1 cells were instead left unstimulated (DMSO) or treated with PMA 1 μg/mL+ionomycin 1 μM as a supraphysiologic stimulus. In all cases, T cells underwent a 5-6 hour incubation period in the presence of DMSO or splicing modulators at the indicated concentrations, and with brefeldin A and monensin present for the entire duration. Cells were subsequently washed, stained for surface markers, and then fixed/permeabilized for intracellular staining of the indicated cytokines according to manufacturer instructions (BD Biosciences).

[2] = system: donor T cells; assay: CFSE adoptive T cell transfer with in vivo splicing modulator treatment; conditions: mouse, in vivo
Procedure: Splenic T cells were obtained from B6 or CD45.1 donors by CD5 positive selection (Miltenyi Biotec, Cat. 130-049-301), labeled with CellTrace CFSE (ThermoFisher Cat. C34570) at 10 μM, and adoptively transferred by tail vein injection into lethally irradiated B6, Balb/c, or LP/J recipients, with […] labeled donor T cells transferred per recipient. All recipients were irradiated on day −1 prior to adoptive T cell transfer with 7 Gy as a single fraction and continuously received splicing inhibitor drugs or vehicle control at the indicated doses, from day −1 until day of sacrifice, with the initial dose of drug at least 4 hours after lethal irradiation. Indisulam and MS-023 were solubilized for in vivo administration and animals were treated as above. Pladienolide B (Tocris, Cat. 6070) and GEX1A (Cayman Chemicals, Cat. 25136) were both dissolved in vehicle (10% ethanol and 4% Tween-80 in sterile PBS) and administered i.p., with pladienolide B dosed at 10 mg/kg every other day, and GEX1A dosed at 1.25 mg/kg every four days. For in vivo use, EPZ015666 was dissolved in DMSO and solubilized in 0.5% methylcellulose in water to 20 mg/mL; animals were treated daily with 200 mg/kg by oral gavage.

[3] = system: OT-1 transgenic T cells against ovalbumin (OVA)-expressing B16-F10 cells; assay: OT-1 cytotoxicity assay; assay type: cell-based, mouse; conditions: 18 hours; minimal impairment at doses less than 4 μM
Procedure: Bulk splenocytes from OT-1 animals were cultured for three days with 100 U/mL murine IL-2 and 100 μg/mL SIINFEKL (SEQ ID NO:1) peptide to activate CD8^+ T cells. Cultures were subsequently washed thoroughly to remove ova peptide and rested for at least 24 hours prior to use. OT-1 cells were passaged in T cell media with 50 U/mL IL-2 for no more than seven days from animal sacrifice prior to use. For the cytotoxicity assay, tumor cells alone or OT-1+tumor cells (1:1 ratio) were incubated in T cell media for 18 hours under standard conditions with the indicated concentrations of splicing drugs and analyzed by flow cytometry to quantify killing. OT-1 cells and other hematopoietic cells were excluded with the use of CD45, CD3, and CD8 staining. Tumor cell viability was measured using DAPI.

[4] = Peripheral blood counts after extended treatment; conditions: three weeks, with or without anti-PD1
Procedure: Animals were subcutaneously engrafted on bilateral flanks with tumor cells (MC38 1×10^6, B16-F10 0.5×10^6 and LLC 0.25×10^6 cells unless otherwise specified) on day 0, and treated continuously with splicing inhibitors (MS-023 50 mg/kg i.p., indisulam 25 mg/kg i.v. or vehicle) daily for 5 of 7 weekly days starting from day +3 of tumor challenge. […] Mice were weighed weekly for weight-based drug dosing.

[5] = system: CD8^+ T cell proliferation; assay: Mixed leukocyte reaction with BMDCs loaded with lysates of drug-treated MC38 cells; assay type: cell-based, mouse; conditions: wild-type BMDCs loaded with lysates of treated MC38 cells; day 5
Procedure: RBC lysed bone marrow obtained from the femurs and tibias of C57BL/6 or P2 microglobulin deficient mice (Jackson Laboratories Cat. 2087) were cultured with mouse IL-3 (PeproTech Cat. 213-13) and mouse FLT3 ligand (PeproTech Cat. 250-31L) both at 10 ng/mL each in RPMI+10% FCS for 7 days to generate bone marrow derived dendritic cells. Separately, […] MC38 treated with splicing inhibitors vs. DMSO or expressing chicken ovalbumin were harvested, washed and resuspended in sterile PBS, and subjected to five cycles of rapid freeze-thaw (alternating between 37° C. and dry ice/acetone) to generate a cell lysate. After brief centrifugation at 100×g, the soluble fraction in PBS was added to bone marrow derived DCs and left to incubate overnight for antigen phagocytosis in the presence of LPS (ThermoFisher Cat. 00-4976-93). DCs were subsequently washed three times to remove cell-free lysates and LPS and incubated in a 1:1 ratio with CFSE-labeled B6 splenic T cells (10^5 stimulators with 10^5 responders) as described above. The MLR was analyzed at day 5 by flow cytometry.

[6] = system: T cells stimulated with anti-CD3 and CD28 antibodies; assay: Gene expression program of activated T cells (RNA-seq); assay type: cell-based, mouse; conditions: ex vivo anti-CD3 and CD28 stimulation in presence of drug
Procedure: Plates were coated with 10 μg/mL anti-CD3 (clone 145-2C11, Biolegend Cat. 100302) and 2 μg/mL anti-CD28 (clone 37.51, Biolegend Cat. 102102) in PBS overnight at 4° C. and washed twice with cold PBS prior to use. CFSE-labeled CD5-selected splenic T cells from naïve C57BL/6J mice were obtained identically as for adoptive cell transfer, and 5×10^4 cells incubated with coated plates in the presence of splicing inhibitor drugs at the indicated concentrations, followed by analysis by standard flow cytometry on day 3. Of note, for RNA-seq analyses, T cells were not labeled with CFSE, and underwent activation for 4 days (96 hours) in the presence of various splicing modulator drugs to harmonize experimental conditions with RNA-seq analyses of tumors treated with splicing inhibitors. For the RNA-seq experiments only, T cells in all conditions were also incubated with IL-2 at 50 U/mL to maximize viability and yield.
Bulk lung and colon were homogenized using a Qiagen TissueRuptor. For all tissues and cell types, RNA was extracted using an RNeasy kit (Qiagen, Frederick, Md.) and quantified using a NanoDrop 8000 (ThermoFisher Scientific). A minimum of 500 ng of high-quality RNA (as determined by Agilent Bioanalyzer) per sample or replicate was used for library preparation. Poly(A)-selected, strand-specific (dUTP method) Illumina libraries were prepared with a modified TruSeq protocol and sequenced on the Illumina HiSeq 2000 (˜100M 2×101 bp paired-end reads per sample or replicate).

[7] = system: CD8^+ T cells; assay: Peptide:H-2K^b tetramer staining of tumor-draining lymph nodes; assay type: in vivo, mouse; conditions: B16-F10 tumor-bearing mice, day 14
[8] = system: LLC tumors; assay: Therapeutic treatment with indisulam and anti-PD1, LLC tumors; assay type: in vivo, mouse; conditions: syngeneic C57BL/6; indisulam 25 mg/kg i.v.; anti-PD1 250 μg
From the text: Mice were weighed weekly for weight-based drug dosing.

| SMILES | ability of OT-1 T cells to secrete IFNγ or TNFα [1] | in vivo T cell proliferation or activation in response to alloantigen [2] | in vitro cytotoxicity of primed OT-1 T cells against OVA-expressing B16-F10 cells [3] | lymphocytes, neutrophils, or other peripheral blood counts [4] | CD8^+ T cell proliferation vs DMSO- or no lysate-pulsed control BMDCs [5] | genes normally upregulated upon T cell activation [6] | frequencies of CD8^+ T cells recognizing splicing-derived peptides in tumor DLN [7] | growth of LLC tumors in vivo [8] |
| --- | --- | --- | --- | --- | --- | --- | --- | --- |
| CC(C)Oc1ccc(-c2c[nH]cc2CN(C)CCN)cc1 [MS-023] | did not inhibit | minimal impairment | minimally impaired | negligible effects | more strongly promoted CD8^+ T cell proliferation | much milder changes | – | – |
| NS(=O)(=O)c1ccc(S(=O)(=O)Nc2cccc3c(Cl)c[nH]c23)cc1 [indisulam] | did not inhibit | minimal impairment | minimally impaired | – | more strongly promoted CD8^+ T cell proliferation | much milder changes | increased frequencies of CD8^+ T cells | inhibited tumor growth |

From patent US20230190707A1, “COMPOSITIONS AND METHODS FOR ENHANCING CANCER IMMUNOTHERAPY” (FRED HUTCHINSON CANCER CENTER, priority 2020, published 2023)
